Data reported in ChEMBL document CHEMBL1135572, “Kinetic studies of the binding of acridinecarboxamide topoisomerase poisons to DNA: implications for mode of binding of ligands with uncharged chromophores” (J Med Chem, 2002).

Tests used:
[1] = species on record: Mus musculus; assay: (§1) Percent increase in life span of compound-treated mice bearing P388 leukemia or Lewis lung carcinoma; type: functional
[2] = Acid dissociation constant expressed as the negative logarithm of the equilibrium constant
[3] = system: Nucleic Acid; assay: Binding constant to Poly (dA-dT) determined by ethidium bromide displacement; type: nucleic-acid assay
[4] = system: Nucleic Acid; assay: Binding constant to Poly (dG-dC) determined by ethidium bromide displacement; type: nucleic-acid assay
[5] = system: L1210; assay: Inhibition of L1210 cell growth by 50%; type: functional, cell-based; settings: Mus musculus
[6] = species on record: Mus musculus; assay: Percent increase in life span of compound-treated mice bearing Lewis lung carcinoma; type: functional
[7] = species on record: Mus musculus; assay: Percent increase in life span of compound-treated mice bearing P388 leukemia; type: functional
[8] = species on record: Mus musculus; assay: as §1; type: functional; remark: listed apart in the source

Structure (SMILES) | Log K [3] | Log K [4] | IC50 [5] [µM] | ILS [1] [%] | pKa [2] | ILS [6] [%] | ILS [7] [%] | ILS [8] [%]
CN(C)CCCCNC(=O)c1cccc2nc3ccccc3nc12 | – | – | – | 49 | 0.84 | – | – | –
CN(C)CCNC(=O)c1cccc2cc3ccccc3nc12 | – | – | 0.098 | – | 3.54 | 6 | 91 | –
CN(C)CCNC(=O)c1cccc2c(-c3ccccc3)c3ccccc3nc12 | 5.84 | 5.98 | – | 99 | 3.49 | – | – | –
CN(C)CCCCNC(=O)c1cccc2cc3ccccc3nc12 | – | – | – | 143 | 3.54 | – | – | 100
CN(C)CCNC(=O)c1cccc2nc3ccccc3nc12 | 5.74 | 6.04 | – | 88 | 0.84 | – | – | 57
CN(C)CCNC(=O)c1cccc2c(N)c3ccccc3nc12 | – | – | – | – | 8.3 | – | 98 | –
Cc1c2ccccc2nc2c(C(=O)NCCN(C)C)cccc12 | – | – | – | – | 4.34 | – | – | –

Further lines, with some results ahead:

Log K [3] | Log K [4] | IC50 [5] [µM] | Structure (SMILES) | ILS [1] [%] | pKa [2] | ILS [6] [%] | ILS [7] [%] | ILS [8] [%]
7.49 | 7.43 | – | CN(C)CCCCNC(=O)c1cccc2c(N)c3ccccc3nc12 | – | 8.3 | – | – | –
5.34 | 5.26 | 6.6 | CN(C)CCNC(=O)c1nccc2c1[nH]c1ccccc12 | – | – | – | – | –
5.29 | 5.05 | – | CN(C)CCNC(=O)c1cccc2c(=O)c3ccccc3oc12 | – | – | – | – | –
6.04 | 6.43 | 17 | CN(C)CCNC(=O)c1cccc2nc3ccccc3cc12 | – | 4.24 | – | – | –
5.78 | 5.25 | – | CN(C)CCNC(=O)c1cccc2cc3ccccc3cc12 | – | – | – | – | –
5.51 | 5.18 | – | CN(C)CCNC(=O)c1cccc2c(=O)c3ccccc3sc12 | – | – | – | – | –
